In general, EC50 refers to the concentration needed to bring the measured effect to its halfway point.

The values below come from patent US8461183B2, “PPAR agonist compounds, preparation and uses” (Genfit, priority 2008, dated 2013).

One test has as its target T1, hPPARα (Homo sapiens, UniProt Q07869).
T1 construct: corresponding to the DEF domains (structural elements of the promoter of the PPARs: D=hinge, EF=ligand fixation domain and AF2 fixation site); expressed in transfected cells; host or cells: COS-7 (monkey kidney fibroblasts)
T1 sequence (Q07869 239-466 limits assumed): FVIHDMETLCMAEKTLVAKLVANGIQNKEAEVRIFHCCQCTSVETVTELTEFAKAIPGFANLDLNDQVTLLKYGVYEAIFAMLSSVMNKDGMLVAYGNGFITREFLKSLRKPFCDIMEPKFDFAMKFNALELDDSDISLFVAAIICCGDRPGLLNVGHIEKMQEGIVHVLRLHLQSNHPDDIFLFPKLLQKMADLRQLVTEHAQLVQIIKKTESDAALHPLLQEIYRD
The test is described as follows: Gal4-hPPARα chimera transactivation (luciferase) in COS-7 cells. The class given is cell-based. Conditions: COS-7 cells, Gal4-hPPARα, 24 hours; for EC50: luciferase, read-out: PPARα EC50; for Emax: relative to maximum activation obtained with fenofibric acid, read-out: PPARα TOP % (maximum activation). The gist of the method:
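COS-7 cells transiently co-transfected with Gal4 DBD–human PPARα, γ or δ DEF-domain chimeras plus Gal4(RE)_TkpGL3 luciferase reporter (1/10), seeded serum-free, then compound-treated 24 h at 37 °C in 1% Ultroser. Luciferase read after lysis; EC50 and TOP % relative to maximal activation by fenofibric acid (α), rosiglitazone (γ) or GW501516 (δ).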

The target in another test is T2, hPPARγ (Homo sapiens, UniProt P37231).
T2 construct: corresponding to the DEF domains (structural elements of the promoter of the PPARs: D=hinge, EF=ligand fixation domain and AF2 fixation site); expressed in transfected cells; host or cells: COS-7 (monkey kidney fibroblasts)
T2 sequence (P37231 238-503 limits assumed): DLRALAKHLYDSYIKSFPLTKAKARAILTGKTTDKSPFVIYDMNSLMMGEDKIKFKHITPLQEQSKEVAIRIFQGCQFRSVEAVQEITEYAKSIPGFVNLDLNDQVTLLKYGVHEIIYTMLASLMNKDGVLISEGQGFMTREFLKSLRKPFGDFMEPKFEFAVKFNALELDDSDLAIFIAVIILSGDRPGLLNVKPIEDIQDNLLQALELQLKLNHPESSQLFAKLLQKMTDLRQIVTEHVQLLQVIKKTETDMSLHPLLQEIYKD
The test is described as follows: Gal4-hPPARγ chimera transactivation (luciferase) in COS-7 cells. The class given is cell-based. Conditions: 24 hours; for EC50: luciferase, read-out: PPARγ EC50; for Emax: relative to maximum activation obtained with rosiglitazone, read-out: PPARγ TOP % (maximum activation). Summed up:
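COS-7 cells transfected with Gal4-DBD fused to human PPARγ or PPARδ DEF (hinge/ligand-binding) domain plus Gal4(RE)_TkpGL3 luciferase reporter (1:10).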

Test [1] concerns ApoE2/E2 dyslipidemic mouse. The test is described as follows: Plasma lipids in the ApoE2/E2 dyslipidemic mouse. The class given is in vivo. The following applies: 7 days. As for the experimental part:
The hypolipemic properties of the compounds according to the invention were evaluated in vivo by determination of plasma lipids and by analysis of gene expression of targets genes of PPARs in the liver after oral treatment of a dyslipidemic mouse with the compounds according to the invention.
The murine model used is the mouse of type ApoE2/E2, a mouse transgenic for the E2 isoform of human apolipoprotein E (Sullivan P M et al., 1998). In humans, this apolipoprotein, a constituent of low and very low density lipoproteins (LDL-VLDL), occurs in three isoforms E2, E3 and E4. […] Because of this, clearance of VLDLs is almost zero. This leads to accumulation of […] and mixed, so-called type III hyperlipidemia (raised cholesterol and triglycerides).
PPARα regulates the expression of genes involved in lipid transport (apolipoproteins such as Apo AI, Apo AII and Apo CIII, membrane transporters such as FAT) or the catabolism of lipids (ACO, CPT-I or CPT-II, enzymes of β-oxidation of fatty acids). Treatment with PPARα activators is therefore reflected, both in humans and in rodents, in a decrease in levels of circulating triglycerides. Measurement of plasma lipids after treatment with the compounds according to the invention is therefore an indicator of the PPARα agonist character and therefore of the hypolipemic action of the compounds according to the invention.
Apo E2/E2 transgenic mice were kept in a cycle of light and darkness of 12 hours/12 hours at a constant temperature of 20±3° C. After acclimation for one week, the mice were weighed and put into groups of 6 animals selected in such a way that the distribution of their bodyweight and of their plasma lipid values determined first before the experiment are uniform. The compounds tested were suspended in carboxymethylcellulose (Sigma C4888) and administered at the chosen dose by stomach tube, at a rate of once a day for 7 days at the chosen dose. The animals had free access to water and food. At the end of the experiment, the animals were anesthetized after fasting for 4 hours, a blood sample was taken on anticoagulant (EDTA), then the mice were weighed and euthanased. The plasma was separated by centrifugation at 3000 rev/min for 20 minutes, and the samples were stored at +4° C. for the biochemical assays. Samples of liver were taken and frozen immediately in liquid nitrogen and then stored at −80° C. for subsequent analyses.
The plasma concentrations of lipids (total cholesterol, HDL-cholesterol, and free fatty acids) were measured by enzyme assays (bioMérieux-Lyons-France) according to the supplier's recommendations.

As to `COc1nc(-c2ccccc2)ccc1COc1ccc(OCC(=O)O)cc1` [Cpd 2, 2-(4-((2-methoxy-6-phenylpyridin-3-yl)methoxy)phenoxy)ethanoic acid], at hPPARα, the EC50 was determined as 143 nM and the Emax stood at 48.3%. Besides, on hPPARγ, the EC50 is 12400 nM and the Emax turned out to be 39.1%. In test [1] (10 and 100 mpk oral), the “plasma level of HDL-cholesterol” value is reported as “dose-dependent increase” and the plasma total cholesterol result is reported as “decreased”.
`COc1nc(-c2ccccc2)ccc1CNc1ccc(OCC(=O)O)cc1` [Cpd 4, 2-(4-(((2-methoxy-6-phenylpyridin-3yl)methyl)amino)phenoxy)ethanoic acid]: on hPPARα, the EC50 was found to be 1470 nM and the Emax turned out to be 66.7%. In addition, at hPPARγ, the 50% effective concentration (EC50) was determined as 17700 nM and the Emax is 70.5%. For the same molecule, in test [1] (10 and 100 mpk oral), the “plasma level of HDL-cholesterol” value is given as “dose-dependent increase” and the plasma total cholesterol result was “decreased”.
As for `COc1nc(-c2ccccc2)ccc1CNc1ccc(CCC(=O)O)cc1` [Cpd 19, 3-(4-(((2-methoxy-6-phenylpyridin-3-yl)methyl)amino)phenyl)propanoic acid], on hPPARα, the EC50 came to 2370 nM and the Emax came out at 68%. In addition, on hPPARγ, the EC50 amounted to 1290 nM and the Emax was found to be 87%. Further, in test [1] (100 mpk oral), the “plasma level of free fatty acids” value is recorded as “decrease” and the plasma total cholesterol result is given as “decreased”.
In the case of `COc1nc(-c2ccc(C(F)(F)F)cc2)ccc1COc1ccc(OCC(=O)O)cc1` [Cpd 24, 2-(4-((2-methoxy-6-(4-(trifluoromethyl)phenyl)pyridin-3-yl)methoxy)-phenoxy)ethanoic acid], on hPPARα, the EC50 came to 371 nM and the Emax turned out to be 76.8%. Moreover, at hPPARγ, the EC50 was 4490 nM and the Emax came to 65.7%.
